Where a name gives a salt, the structure may show the parent alone.

This assay deals with CK2A1 (CK2α/β) (Homo sapiens, UniProt P68400). Put plainly: CK2 kinase assay, CK2A1 (CK2α/β). It is filed as biochemical. The following applies: Table A; read-out: CK2A1 (CK2α/β) (IC50).
Chain of CK2A1 (CK2α/β) (P68400 whole entry, species assumed): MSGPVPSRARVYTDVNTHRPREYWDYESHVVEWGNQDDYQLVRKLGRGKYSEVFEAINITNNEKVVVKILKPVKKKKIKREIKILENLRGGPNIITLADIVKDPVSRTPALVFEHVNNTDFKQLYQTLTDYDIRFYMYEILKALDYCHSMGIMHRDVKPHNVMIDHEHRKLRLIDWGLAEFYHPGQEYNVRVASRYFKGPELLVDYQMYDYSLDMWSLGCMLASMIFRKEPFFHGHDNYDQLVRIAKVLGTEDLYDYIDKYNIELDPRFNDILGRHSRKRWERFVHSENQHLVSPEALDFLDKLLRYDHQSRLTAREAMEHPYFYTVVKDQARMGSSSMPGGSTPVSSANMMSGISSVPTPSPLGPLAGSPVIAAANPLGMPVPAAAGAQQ
Chain of CK2A1 (CK2α/β) (P67870 whole entry partner, species assumed): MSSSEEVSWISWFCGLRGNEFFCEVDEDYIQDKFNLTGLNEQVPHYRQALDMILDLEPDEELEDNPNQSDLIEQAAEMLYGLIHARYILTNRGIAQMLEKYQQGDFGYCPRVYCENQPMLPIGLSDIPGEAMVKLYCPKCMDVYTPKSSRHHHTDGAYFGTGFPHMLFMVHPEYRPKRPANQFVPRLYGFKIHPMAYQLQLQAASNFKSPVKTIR
Consider `CCNc1nc(Nc2cc(C#N)cc(N3CC[C@H](NC(=O)OC)[C@@H](OP(=O)(O)O)C3)c2Cl)nn2c(C#N)cnc12` [Example 338, methyl ((3S,4S)-1-(2-chloro-5-cyano-3-((7-cyano-4-(ethylamino)imidazo[2,1-f][1,2,4]triazin-2-yl)amino)phenyl)-3-(phosphonooxy)-4-piperidinyl)carbamate], for which the IC50 was found to be 0.82 nM.
`CC(O)CN1CCN(c2cc(C#N)cc(Nc3nc(NC4CC4)c4ncc(C#N)n4n3)c2Cl)C(=O)C1` (racemic) [Example 624, (+/−)-2-((2-chloro-5-cyano-3-(4-(2-hydroxypropyl)-2-oxopiperazin-1-yl)phenyl)amino)-4-(cyclopropylamino)imidazo[2,1-f][1,2,4]triazine-7-carbonitrile]: the IC50 came out at 2.94 nM.
For the compound `N#Cc1cc(Nc2nc(NC3CC3)c3ncc(C#N)n3n2)c(F)c(N2CCN([C@@H]3COC[C@H]3O)CC2)c1` (racemic) [Example 552, rac-2-((5-cyano-2-fluoro-3-(4-((3R,4S)-4-hydroxytetrahydrofuran-3-yl)piperazin-1-yl)phenyl)amino)-4-(cyclopropylamino)imidazo[2,1-f][1,2,4]triazine-7-carbonitrile], the IC50 is 6.31 nM.
Take `N#Cc1cc(Nc2nc(NC3CC3)c3ncc(C#N)n3n2)c(Cl)c(N2CCN(C3CN(S(=O)(=O)C4CC4)C3)CC2)c1` [Example 504, 2-[(2-chloro-5-cyano-3-{4-[1-(cyclopropanesulfonyl)azetidin-3-yl]piperazin-1-yl}phenyl)amino]-4-(cyclopropylamino)imidazo[2,1-f][1,2,4]triazine-7-carbonitrile]: the IC50 turned out to be 4.07 nM.
As to `CN1CC2CN(c3cc(C#N)cc(Nc4nc(NC5CC5)c5ncc(C#N)n5n4)c3Cl)CC2C1` (stereo not shown) [Example 461, 2-((2-chloro-5-cyano-3-(5-methylhexahydropyrrolo[3,4-c]pyrrol-2(1H)-yl)phenyl)amino)-4-(cyclopropylamino)imidazo[2,1-f][1,2,4]triazine-7-carbonitrile], the IC50 amounted to 2.46 nM.
`CC(C(N)=O)N1CC2(CCN(c3cc(C#N)cc(Nc4nc(NC5CC5)c5ncc(C#N)n5n4)c3Cl)CC2)C1` (racemic) [Example 802, (+/−)-2-(7-(2-chloro-5-cyano-3-((7-cyano-4-(cyclopropylamino)imidazo[2,1-f][1,2,4]triazin-2-yl)amino)phenyl)-2,7-diazaspiro[3.5]nonan-2-yl)propanamide]: the IC50 worked out at 6.9 nM.
`N#Cc1cc(Nc2nc(NC3CC3)c3ncc(C#N)n3n2)c(Cl)c(N2CCN(C(=O)C3CNC(=O)N3)CC2)c1` (racemic) [Example 81, (+/−)2-((2-chloro-5-cyano-3-(4-((2-oxo-4-imidazolidinyl)carbonyl)-1-piperazinyl)phenyl)amino)-4-(cyclopropylamino) imidazo[2,1-f][1,2,4] triazine-7-carbonitrile]: the IC50 was determined as 1.8 nM.
For `N#Cc1cc(Nc2nc(NC3CC3)c3ncc(C#N)n3n2)c(F)cc1OC[C@@H]1COCCN1` [Example 417, (S)-2-((5-cyano-2-fluoro-4-(morpholin-3-ylmethoxy)phenyl)amino)-4-(cyclopropylamino)imidazo[2,1-f][1,2,4]triazine-7-carbonitrile] the value was 0.31 nM; for `CCNc1nc(Nc2cc(C#N)cc(C3CCN(CC(C)(C)O)CC3)c2Cl)nn2c(C#N)cnc12` [Example 353, 2-((2-chloro-5-cyano-3-(1-(2-hydroxy-2-methylpropyl)-4-piperidinyl)phenyl)amino)-4-(ethylamino)imidazo[2,1-f][1,2,4]triazine-7-carbonitrile], 0.87 nM; for `CC[C@H]1CN(c2cc(C#N)cc(Nc3nc(NC4CC4)c4ncc(C#N)n4n3)c2Cl)C[C@H]1NC(=O)OC` (racemic) [Example 292, (+/−) methyl ((3S,4S)-1-(2-chloro-5-cyano-3-((7-cyano-4-(cyclopropylamino)imidazo[2,1-f][1,2,4]triazin-2-yl)amino)phenyl)-4-ethyl-3-pyrrolidinyl)carbamate], 2 nM.
For `N#Cc1cc(Nc2nc(NC3CC3)c3ncc(C#N)n3n2)c(Cl)c(N2CCC(NCC(O)CF)CC2)c1` (racemic) [Example 144, (+/−) 2-((2-chloro-5-cyano-3-(4-((3-fluoro-2-hydroxypropyl)amino)-1-piperidinyl)phenyl)amino)-4-(cyclopropylamino)imidazo [2,1-f][1,2,4]triazine-7-carbonitrile], the IC50 is 1.11 nM.
Take `COC(=O)N1CCN(Cc2cc(C#N)cc(Nc3nc(NC4CC4)c4ncc(C#N)n4n3)c2Cl)CC1` [Example 478, methyl 4-[(2-chloro-5-cyano-3-{[7-cyano-4-(cyclopropylamino)imidazo[2,1-f][1,2,4]triazin-2-yl]amino}phenyl)methyl]piperazine-1-carboxylate]: the IC50 turned out to be 1.31 nM.
With `COC(=O)N[C@H]1CN(C2CN(c3cc(C#N)cc(Nc4nc(NC5CC5)c5ncc(C#N)n5n4)c3Cl)C2)C[C@@H]1OC` (racemic) [Example 297, (+/−) methyl ((3S,4S)-1-(1-(2-chloro-5-cyano-3-((7-cyano-4-(cyclopropylamino)imidazo[2,1-f][1,2,4]triazin-2-yl)amino)phenyl)-3-azetidinyl)-4-methoxy-3-pyrrolidinyl)carbamate], the IC50 worked out at 3.05 nM.
With `CNCCOC(=O)N1CCN(c2cc(C#N)cc(Nc3nc(NC4CC4)c4ncc(C#N)n4n3)c2Cl)CC1` [Example 71, 2-(methylamino)ethyl 4-(2-chloro-5-cyano-3-((7-cyano-4-(cyclopropylamino)imidazo[2,1-f] [1,2,4]triazin-2-yl)amino)phenyl)-1-piperazinecarboxylate] the figure was 0.76 nM; with `N#Cc1cc(Nc2nc(NC3CC3)c3ncc(C#N)n3n2)c(Cl)c(N2CCN(C3CCS(=O)(=O)C3)CC2)c1` (stereo not shown) [Example 582, 2-({2-chloro-5-cyano-3-[4-(1,1-dioxo-1λ^6-thiolan-3-yl)piperazin-1-yl]phenyl}amino)-4-(cyclopropylamino)imidazo [2,1-f][1,2,4]triazine-7-carbonitrile], 5.9 nM.
`N#Cc1cc(Nc2nc(NC3CC3)c3ncc(C#N)n3n2)c(Cl)c(C(O)C2CCN(C3COC3)CC2)c1` (stereo not shown) [Example 655, 2-((2-chloro-5-cyano-3-(hydroxy(1-(oxetan-3-yl)piperidin-4-yl)methyl)phenyl)amino)-4-(cyclopropylamino)imidazo[2,1-f][1,2,4]triazine-7-carbonitrile]: the IC50 is 2.82 nM.
With `COC(=O)N[C@H]1CCN(c2cc(C#N)cc(Nc3nc(NC4CC4)c4ncc(C#N)n4n3)c2Cl)C[C@@H]1OC(=O)Cc1ccc(OP(=O)(O)O)cc1` [Example 199, (3S,4S)-1-(2-chloro-5-cyano-3-((7-cyano-4-(cyclopropylamino)imidazo[2,1-f][1,2,4]triazin-2-yl)amino)phenyl)-4-((methoxycarbonyl)amino)-3-piperidinyl (4-(phosphonooxy)phenyl)acetate], the IC50 stood at 0.45 nM.
With `CC(CC(C)c1cc(Cl)c(Nc2nc(NC3CC3)c3ncc(C#N)n3n2)cc1C#N)NCCC(F)(F)F` (single isomer, unassigned) [Example 734, 2-[(2-chloro-5-cyano-4-{4-[(3,3,3-trifluoropropyl)amino]pentan-2-yl}phenyl)amino]-4-(cyclopropylamino) imidazo[2,1-f][1,2,4]triazine-7-carbonitrile] the figure was 6.07 nM.
With `CO[C@@H]1CN(c2cc(C#N)cc(Nc3nc(NC4CC4)c4ncc(C#N)n4n3)c2Cl)C[C@H]1O` (racemic) [Example 305, (+/−)-2-((2-chloro-5-cyano-3-((3R,4R)-3-hydroxy-4-methoxypyrrolidin-1-yl)phenyl)amino)-4-(cyclopropylamino)imidazo[2,1-f][1,2,4]triazine-7-carbonitrile, HCl] the figure was 0.65 nM; with `N#Cc1cc(Nc2nc(NC3CC3)c3ncc(C#N)n3n2)c(Cl)c(OC2CNCCOC2)c1` (racemic) [Example 440, (+/−)-2-((3-((1,4-oxazepan-6-yl)oxy)-2-chloro-5-cyanophenyl)amino)-4-(cyclopropylamino)imidazo[2,1-f][1,2,4]triazine-7-carbonitrile], 0.88 nM.
With `CN1CCN(C(=O)C2CCN(c3cc(C(F)F)cc(Nc4nc(NC5CC5)c5ncc(C#N)n5n4)c3Cl)CC2)CC1` [Example 546, 2-((2-chloro-5-(difluoromethyl)-3-(4-(4-methylpiperazine-1-carbonyl)piperidin-1-yl)phenyl)amino)-4-(cyclopropylamino)imidazo[2,1-f][1,2,4]triazine-7-carbonitrile] the figure was 2.7 nM.
For `CC1(O)CN(C2CCN(c3cc(C#N)cc(Nc4nc(NC5CC5)c5ncc(C#N)n5n4)c3Cl)CC2)C1` [Example 111, 2-(2-chloro-5-cyano-3-(4-(3-hydroxy-3-methylazetidin-1-yl)piperidin-1-yl)phenylamino)-4-(cyclopropylamino)imidazo [1,2-f][1,2,4]triazine-7-carbonitrile], the IC50 was 0.68 nM.
In the case of `COCCN1CC(N2CCC(c3cc(C#N)cc(Nc4nc(NC5CC5)c5ncc(C#N)n5n4)c3Cl)CC2)C1` [Example 325, 2-((2-chloro-5-cyano-3-(1-(1-(2-methoxyethyl)-3-azetidinyl)-4-piperidinyl)phenyl)amino)-4-(cyclopropylamino)imidazo [2,1-f][1,2,4]triazine-7-carbonitrile], the IC50 turned out to be 0.57 nM.
For `N#Cc1cc(Nc2nc(NC3CC3)c3ncc(C#N)n3n2)c(Cl)c(N2CCN(C3CN(C(=O)C4(N)CC4)C3)CC2)c1` [Example 500, 2-[(3-{4-[1-(1-aminocyclopropanecarbonyl)azetidin-3-yl]piperazin-1-yl}-2-chloro-5-cyanophenyl)amino]-4-(cyclopropylamino)imidazo[2,1-f][1,2,4]triazine-7-carbonitrile] the value was 3.92 nM; for `COC(=O)Nc1cc(Nc2nc(NC3CC3)c3ncc(C#N)n3n2)c(Cl)c(N2CCC(N3CCOCC3)CC2)c1` [Example 205, methyl (4-chloro-3-((7-cyano-4-(cyclopropylamino)imidazo[2,1-f][1,2,4]triazin-2-yl)amino)-5-(4-(4-morpholinyl)-1-piperidinyl)phenyl)carbamate], 1.95 nM.

For the origin of these results see patent US9273057B2 (Bristol-Myers Squibb Company, priority 2012, dated 2016).
